From ChEMBL document CHEMBL1212738, “Phenotypic and genotypic characterization of Enterobacteriaceae with decreased susceptibility to carbapenems: results from large hospital-based surveillance studies in China” (2010)
In brackets after ≈: the same amount, converted by molar mass.

What was measured:
Klebsiella pneumoniae [1] = assay: Antimicrobial activity against carbapenem-resistant Klebsiella pneumoniae GZ84 deficient in SHV-11, aac(6')-Ib-cr, ompK35 by CLSI method; format: functional
Escherichia coli [2] = assay: Antimicrobial activity against carbapenem-resistant Escherichia coli HX74 deficient in TEM-1, CTX-M-14, CTX-M-3, aac(6')-Ibcr, ompC/F by CLSI method; format: functional
Citrobacter freundii [3] = assay: Antimicrobial activity against Citrobacter freundii SZ62 expressing IMP-4, TEM-1, CMY-2, qnrS1, aac(6')-Ib-cr by CLSI method; format: functional
Klebsiella aerogenes [4] = assay: Antimicrobial activity against carbapenem-resistant Enterobacter aerogenes PU41 deficient in CTX-M-14, DHA-1, qnrS1, ompC DEc, ompF by CLSI method; format: functional
Klebsiella aerogenes [5] = assay: Antimicrobial activity against Enterobacter aerogenes PU41T expressing CTX-M-14, DHA-1, qnrS1 by CLSI method; format: functional
Escherichia coli [6] = assay: Antimicrobial activity against Escherichia coli ZJ87T expressing KPC-2 by CLSI method; format: functional
Escherichia coli [7] = assay: Antimicrobial activity against carbapenem-resistant Escherichia coli PU96 deficient in TEM-1, CTX-M-14, CMY-2, ompC/F by CLSI method; format: functional
Citrobacter freundii [8] = assay: Antimicrobial activity against Citrobacter freundii SZ63 expressing IMP-4, qnrS1by CLSI method; format: functional
Citrobacter freundii [9] = assay: Antimicrobial activity against Citrobacter freundii SZ63T expressing IMP-4, qnrS1by CLSI method; format: functional
Klebsiella pneumoniae [10] = assay: Antimicrobial activity against carbapenem-resistant Klebsiella pneumoniae GZ66 deficient in SHV-11, DHA-1, ompK35/36 by CLSI method; format: functional
Klebsiella pneumoniae [11] = assay: Antimicrobial activity against carbapenem-resistant Klebsiella pneumoniae PU104 deficient in TEM-1, SHV-11, CTX-M-15, qnrS1, ompK35/36 by CLSI method; format: functional
Klebsiella pneumoniae [12] = assay: Antimicrobial activity against Klebsiella pneumoniae ZJ99 expressing KPC-2, CTX-M-3, qnrS1, ompK35 DE by CLSI method; format: functional
Klebsiella pneumoniae [13] = assay: Antimicrobial activity against carbapenem-resistant Klebsiella pneumoniae ZJ70 deficient in KPC-2, SHV-11, CTX-M-14, ompK35/36 by CLSI method; format: functional
Escherichia coli [14] = assay: Antimicrobial activity against carbapenem-resistant Escherichia coli PU43 deficient in TEM-1, CTX-M-14, aac(6')-Ib, ompC/F by CLSI method; format: functional
Klebsiella pneumoniae [15] = assay: Antimicrobial activity against Klebsiella pneumoniae ZJ99T expressing KPC-2, CTX-M-3, qnrS1 by CLSI method; format: functional
Klebsiella pneumoniae [16] = assay: Antimicrobial activity against Klebsiella pneumoniae CY1T expressing SHV-11, DHA-1 by CLSI method; format: functional
Klebsiella pneumoniae [17] = assay: Antimicrobial activity against Klebsiella pneumoniae ZJ71T expressing KPC-2 by CLSI method; format: functional
Enterobacter cloacae [18] = assay: Antimicrobial activity against carbapenem-resistant Enterobacter cloacae SZ92 deficient in IMP-4, TEM-1, CTX-M-14, DHA-1, qnrB10/B4-like, aac(6')-Ib, ompC by CLSI method; format: functional
Enterobacter cloacae [19] = assay: Antimicrobial activity against carbapenem-resistant Enterobacter cloacae GX24 deficient in TEM-1, DHA-1, aac(6')-Ib, ompC by CLSI method; format: functional
Klebsiella pneumoniae [20] = assay: Antimicrobial activity against carbapenem-resistant Klebsiella pneumoniae PU8 deficient in SHV-11, DHA-1, aac(6')-Ib-cr, ompK35/36 by CLSI method; format: functional
Klebsiella aerogenes [21] = assay: Antimicrobial activity against carbapenem-resistant Enterobacter aerogenes WH85 deficient in TEM-1, CTX-M-3, ompC/F by CLSI method; format: functional
Klebsiella pneumoniae [22] = assay: Antimicrobial activity against Klebsiella pneumoniae ZJ68T expressing CTX-M-15 by CLSI method; format: functional
Klebsiella pneumoniae [23] = assay: Antimicrobial activity against Klebsiella pneumoniae ZJ70T expressing KPC-2 by CLSI method; format: functional
Enterobacter cloacae [24] = assay: Antimicrobial activity against carbapenem-resistant Enterobacter cloacae NJ88 deficient in CTX-M-14, ompC/F by CLSI method; format: functional
Escherichia coli [25] = assay: Antimicrobial activity against Escherichia coli PU60T expressing CMY-2 by CLSI method; format: functional
Klebsiella pneumoniae [26] = assay: Antimicrobial activity against carbapenem-resistant Klebsiella pneumoniae FZ47 deficient in IMP-8, TEM-1, SHV-11, CTX-M-14, qnrB2, aac(6')-Ib, ompK35/36 by CLSI method; format: functional
Escherichia coli [27] = assay: Antimicrobial activity against Escherichia coli C600 transconjugant GZ66T expressing SHV-11, DHA-1 by CLSI method
Klebsiella pneumoniae [28] = assay: Antimicrobial activity against carbapenem-resistant Klebsiella pneumoniae CY1 deficient in SHV-11, DHA-1, ompK35/36 by CLSI method; format: functional
Klebsiella pneumoniae [29] = assay: Antimicrobial activity against Klebsiella pneumoniae WH76 expressing IMP-4, TEM-1, SHV-14, CTX-M-3, qnrS1 by CLSI method; format: functional
Klebsiella pneumoniae [30] = assay: Antimicrobial activity against carbapenem-resistant Klebsiella pneumoniae PU4 deficient in SHV-1, DHA-1, ompK35/36 by CLSI method; format: functional
Klebsiella pneumoniae [31] = assay: Antimicrobial activity against Klebsiella pneumoniae WH77 expressing IMP-4, TEM-1, SHV-14, CTX-M-3, qnrS1 by CLSI method; format: functional
Escherichia coli [32] = assay: Antimicrobial activity against Escherichia coli C600 transconjugant WH76T expressing IMP-4, TEM-1, CTX-M-3, qnrS1 by CLSI method
Klebsiella pneumoniae [33] = assay: Antimicrobial activity against carbapenem-resistant Klebsiella pneumoniae XJ81 deficient in TEM-1, SHV-12, DHA-1, aac(6')-Ib, ompK35/36 by CLSI method; format: functional
Klebsiella pneumoniae [34] = assay: Antimicrobial activity against carbapenem-resistant Klebsiella pneumoniae SX67 deficient in SHV-2, CTX-M-14, DHA-1, qnrB6/S1, aac(6')-Ib-cr, ompK35/36 by CLSI method; format: functional
Klebsiella pneumoniae [35] = assay: Antimicrobial activity against carbapenem-resistant Klebsiella pneumoniae FZ49 deficient in IMP-8, TEM-1, SHV-11, CTX-M-14, qnrB2, aac(6')-Ib, ompK35/36 by CLSI method; format: functional
Klebsiella pneumoniae [36] = assay: Antimicrobial activity against carbapenem-resistant Klebsiella pneumoniae SZ61 deficient in TEM-1, SHV-1a, CMY-2, ompK35/36 by CLSI method; format: functional
Klebsiella pneumoniae [37] = assay: Antimicrobial activity against carbapenem-resistant Klebsiella pneumoniae ZJ68 deficient in CTX-M-15, ompK35/36 by CLSI method
Klebsiella pneumoniae [38] = assay: Antimicrobial activity against carbapenem-resistant Klebsiella pneumoniae ZJ69 deficient in SHV-28, ompK35/36 by CLSI method; format: functional
Enterobacter cloacae [39] = assay: Antimicrobial activity against carbapenem-resistant Enterobacter cloacae WH103 deficient in IMP-4, TEM-1, CTX-M-3, qnrS1, ompC by CLSI method; format: functional
Klebsiella pneumoniae [40] = assay: Antimicrobial activity against Klebsiella pneumoniae GZ64 expressing IMP-4, ompK35/36 by CLSI method; format: functional

SMILES: C[C@@H](O)[C@H]1C(=O)N2C(C(=O)O)=C(SCCNC=N)C[C@H]12 [IMIPENEM ANHYDROUS]
- MIC (Klebsiella pneumoniae [1]): 1 µg/mL (≈ 3.34 µM)
- MIC (Escherichia coli [2]): 4 µg/mL (≈ 13.4 µM)
- MIC (Citrobacter freundii [3]): 4 µg/mL (≈ 13.4 µM)
- MIC (Klebsiella aerogenes [4]): 32 µg/mL (≈ 107 µM)
- MIC (Klebsiella aerogenes [5]): 0.5 µg/mL (≈ 1.67 µM)
- MIC (Escherichia coli [6]): 8 µg/mL (≈ 26.7 µM)
- MIC (Escherichia coli [7]): 32 µg/mL (≈ 107 µM)
- MIC (Citrobacter freundii [8]): 4 µg/mL (≈ 13.4 µM)
- MIC (Citrobacter freundii [9]): 4 µg/mL (≈ 13.4 µM)
- MIC (Klebsiella pneumoniae [10]): 32 µg/mL (≈ 107 µM)
- MIC (Klebsiella pneumoniae [11]): 2 µg/mL (≈ 6.68 µM)
- MIC (Klebsiella pneumoniae [12]): 16 µg/mL (≈ 53.4 µM)
- MIC (Klebsiella pneumoniae [13]): > 256 µg/mL
- MIC (Escherichia coli [14]): 8 µg/mL (≈ 26.7 µM)
- MIC (Klebsiella pneumoniae [15]): 16 µg/mL (≈ 53.4 µM)
- MIC (Klebsiella pneumoniae [16]): 0.25 µg/mL (≈ 0.835 µM)
- MIC (Klebsiella pneumoniae [17]): 8 µg/mL (≈ 26.7 µM)
- MIC (Enterobacter cloacae [18]): 8 µg/mL (≈ 26.7 µM)
- MIC (Enterobacter cloacae [19]): 4 µg/mL (≈ 13.4 µM)
- MIC (Klebsiella pneumoniae [20]): 16 µg/mL (≈ 53.4 µM)
- MIC (Klebsiella aerogenes [21]): 8 µg/mL (≈ 26.7 µM)
- MIC (Klebsiella pneumoniae [22]): 0.5 µg/mL (≈ 1.67 µM)
- MIC (Klebsiella pneumoniae [23]): 16 µg/mL (≈ 53.4 µM)
- MIC (Enterobacter cloacae [24]): 16 µg/mL (≈ 53.4 µM)
- MIC (Escherichia coli [25]): 0.5 µg/mL (≈ 1.67 µM)
- MIC (Klebsiella pneumoniae [26]): 8 µg/mL (≈ 26.7 µM)
- MIC (Escherichia coli [27]): 0.5 µg/mL (≈ 1.67 µM)
- MIC (Klebsiella pneumoniae [28]): 32 µg/mL (≈ 107 µM)
- MIC (Klebsiella pneumoniae [29]): 2 µg/mL (≈ 6.68 µM)
- MIC (Klebsiella pneumoniae [30]): 16 µg/mL (≈ 53.4 µM)
- MIC (Klebsiella pneumoniae [31]): 2 µg/mL (≈ 6.68 µM)
- MIC (Escherichia coli [32]): 4 µg/mL (≈ 13.4 µM)
- MIC (Klebsiella pneumoniae [33]): 8 µg/mL (≈ 26.7 µM)
- MIC (Klebsiella pneumoniae [34]): 4 µg/mL (≈ 13.4 µM)
- MIC (Klebsiella pneumoniae [35]): 8 µg/mL (≈ 26.7 µM)
- MIC (Klebsiella pneumoniae [36]): 16 µg/mL (≈ 53.4 µM)
- MIC (Klebsiella pneumoniae [37]): 4 µg/mL (≈ 13.4 µM)
- MIC (Klebsiella pneumoniae [38]): 32 µg/mL (≈ 107 µM)
- MIC (Enterobacter cloacae [39]): 8 µg/mL (≈ 26.7 µM)
- MIC (Klebsiella pneumoniae [40]): 16 µg/mL (≈ 53.4 µM)
